# Source: article doi:10.1101/2024.05.02.592243v1, “Vestibular Modulation by Stimulant Derivatives in a Pentameric Ligand-Gated Ion Channel” (biorxiv, 2024)
# How the values were obtained:
# [1] = biological target: T1, sTeLIC (endosymbiont of Tevnia jerichonana, UniProt G2FID1); assay: cryo-EM structure; format: binding; set-up: gene TevJSym_bc00020; homopentamer (C5); oocyte rows: sTeLIC cDNA in vector pMT3, Xenopus laevis oocytes; structures: N-terminal MBP fusion (pET20b, E. coli C43(DE3)), MBP cut off with thrombin; settings: pH 7.5, saposin nanodisc, 2 mM FFC-8; density in vestibular site, open state
# T1 sequence (G2FID1 1-320): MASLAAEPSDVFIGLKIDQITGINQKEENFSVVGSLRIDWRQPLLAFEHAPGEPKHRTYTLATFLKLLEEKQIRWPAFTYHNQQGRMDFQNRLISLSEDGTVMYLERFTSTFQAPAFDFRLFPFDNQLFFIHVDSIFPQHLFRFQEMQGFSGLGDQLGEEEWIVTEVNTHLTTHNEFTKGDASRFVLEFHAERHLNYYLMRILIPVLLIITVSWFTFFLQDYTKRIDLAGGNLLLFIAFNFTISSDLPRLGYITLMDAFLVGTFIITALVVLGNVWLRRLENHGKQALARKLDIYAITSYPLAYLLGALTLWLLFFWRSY
# [2] = biological target: T1, sTeLIC; assay: two-electrode voltage clamp, Xenopus laevis oocytes; format: cell-based; set-up: gene TevJSym_bc00020; homopentamer (C5); oocyte rows: sTeLIC cDNA in vector pMT3, Xenopus laevis oocytes; settings: pH 8.5 (~EC20), 30-s coapplication, -40 mV
# [3] = biological target: T1, sTeLIC; assay: X-ray co-crystal structure, […] A, anomalous Br signal; format: binding; set-up: gene TevJSym_bc00020; homopentamer (C5); oocyte rows: sTeLIC cDNA in vector pMT3, Xenopus laevis oocytes; structures: N-terminal MBP fusion (pET20b, E. coli C43(DE3)), MBP cut off with thrombin; settings: pH 8.0, DDM/NDG detergent, 3 mM ligand; vestibular site, open state
SMILES,cryo-EM structure [1],"% modulation ([2]; positive modulator, micromolar concentrations)","X-ray co-crystal structure, 3.2 A, anomalous Br signal [3]","% modulation ([2]; positive allosteric modulator, vestibular site, up to 200 uM)"
C[N+](C)(C)CCOP(=O)([O-])OCCC(F)(F)C(F)(F)C(F)(F)C(F)(F)C(F)(F)C(F)(F)F [FFC-8],This density could reasonably accommodate fluorinated fos-choline-8 (FFC-8),micromolar concentrations of FFC-8 potentiated sTeLIC currents in oocytes,,
C[C@H](N)Cc1ccc(Br)cc1 [BrAmp],,,Anomalous signal from the bromine atom of BrAmp allowed definitive placement in the vestibular pocket,BrAmp showed positive modulatory effects similar to BrCA
